As to `COc1cc(Nc2c(C#N)cnc3sc(CCCCO)cc23)cc(OC)c1OC`, the melting point (in general, the temperature, or range, at which the solid turns liquid) fell in the range of 125 to 127 °C.

Compound `O=C1C(=O)N2CCSc3cc(Br)cc1c32` displayed a melting point of 196 °C.

Compound `O=C(Nc1ccccc1O)c1ccc(CS(=O)(=O)c2ccc(O)cc2)cc1` yielded a melting point of 250 °C.

The compound `Cc1cc(Oc2ccc(C#N)cc2C(F)(F)F)n[nH]1` gave a melting point of 123 to 125 °C.

Take `Nc1nc2ccc3ccc(CNc4ccc([N+](=O)[O-])cc4)cc3c2c(=O)[nH]1`: the melting point was above 230 °C.

Turning to `Nc1nnc(-c2ccc3ncn(-c4cccc(C(F)(F)F)c4)c3c2)o1`, the melting point was 244 to 245 °C.

Regarding `CCCCCc1nc(N(C)C)nc(C)c1O`, the melting point was 61 to 62 °C.

For `CC1=C(C(=O)OCCN(Cc2ccccc2)Cc2ccccc2)C(c2ccccc2C(F)(F)F)c2c(ccnc2OC(C)C)N1` (stereo unspecified), the melting point lay in the range of 132 to 133 °C.

In turn, `CCN(CC)Cc1ccc2nc(-c3ccccc3F)cc(OCc3ccccc3)c2c1` registered a melting point of 51.2 to 51.5 °C.

`COC(=O)COc1ccc(C[C@H](NC(=O)OC(C)(C)C)C(=O)O)cc1` displayed a melting point of 75 to 79 °C.

Consider `O=C(c1cccnc1)N1CCCC(c2ccccc2)=N1`, for which the melting point is 84 to 86 °C.

In the case of `CCc1ccc2c(C=O)c3ccccc3c(C=O)c2c1`, the melting point was 99 to 100 °C.

As to `CCOC(=O)CCc1cnc2c(NC(=O)c3c(Cl)cccc3Cl)cccc2c1`, the melting point lay within 110 to 111 °C.

Compound `COc1cc(C=CC(=O)OC2CC3CC(OC(=O)C=Cc4cc(OC)c(OC)c(OC)c4)C(C2)N3C)cc(OC)c1OC` (stereo unspecified) gave a melting point of 53 to 57 °C.

As to `O=C1C=CC(O)(c2cnc3ccccc3c2)C=C1`, the melting point lay in the range of 183 to 184 °C.

In the case of `CC(C)NC(=O)n1cc(Cl)c(-c2cc(Cl)cc(Cl)c2)n1`, the melting point was 127 °C.

For `Brc1ccc2cc(Nc3ccccc3)ccc2c1`, the melting point is 126 to 128 °C.

Regarding `S=C=NCCC1CC(c2ccccc2)=NO1` (stereo unspecified), the melting point was 54 to 56 °C.

As to `CSc1ccc(CC#N)cc1`, the melting point fell in the range of 44 to 45 °C.

Consider `O=c1[nH]c2cccc3c2n1CCC3`, for which the melting point worked out at 216 °C.

The compound `CCOC(=O)COc1ccc(S(=O)(=O)c2ccc(C)nc2Nc2c(C)cc(C)cc2C)cc1` yielded a melting point of 116 to 118 °C.

Compound `O=C(O)c1ccc2c(c1)C=Cc1ccc(C(=O)O)cc1S2(=O)=O` came in with a melting point of 375 °C.

The compound `CCOC(=O)C1=C(C)N(C)C(C)=C(C(=O)OC)C1c1ccccc1C#N` (stereo unspecified) came in with a melting point of 175 °C.

`O=C(Nc1ccccc1F)c1ccccc1CN1C(=O)C2(COc3cc4c(cc32)CCO4)c2ccccc21` (stereo unspecified) came in with a melting point of 195 to 197 °C.

`O=C(O)C1=CSC2C(=Cc3cc4c(s3)CCOC4)C(=O)N12` (stereo unspecified) displayed a melting point above 250 °C.

`CC(C)=NOCc1nc2c(N)nc3cccnc3c2n1CC(C)C` showed a melting point of 173 to 175 °C.

Take `CCCCOc1nc(N)c2nc(OC)n(CCCCNCCOC)c2n1`: the melting point is 99 to 100 °C.

`O=C(OCc1ccccc1)c1cc(OCc2ccccc2)c(OCc2ccccc2)cn1` showed a melting point of 117 °C.

Consider `CCC1(CCC(=O)OC(C)(C)C)CCCN2CCc3c([nH]c4ccccc34)C21` (stereo unspecified), for which the melting point was 194 to 195 °C.

On to `O=Cc1coc2cc(OC(=O)OCC(Cl)(Cl)Cl)c(OC(=O)OCC(Cl)(Cl)Cl)cc2c1=O`, for which the melting point lay within 153 to 155 °C.

`OCCc1ccc(Nc2ncc3c(n2)-c2ccccc2C(c2ccc(F)c(F)c2)C3)cc1` (stereo unspecified) returned a melting point of 170 to 172 °C.

As to `O=C(O)C(Cc1ccccc1)Cc1ccc([N+](=O)[O-])cc1` (stereo unspecified), the melting point lay in the range of 104 to 105 °C.

Turning to `Cc1ccc([C@@H]2c3c(C)c(NC(=O)Cc4ccc(C(F)(F)F)cc4)c(C)c(C)c3OC2(C)C)cc1`, the melting point was in the range of 187 to 189 °C.

Turning to `CCCCCCCCCCCCCCCCCCNC(=O)c1ccccc1I`, the melting point was 94 to 96 °C.

As to `Fc1ccc(-c2c[nH]cn2)cc1`, the melting point was in the range of 130 to 132 °C.

With `COC(=O)CSc1cc(NC(=S)N2CCCN2)c(F)cc1Cl`, the melting point is 137 to 141 °C.

As to `CC(C)(C)c1cc(Oc2ccc(N)c(O)c2)ccc1Oc1ccc(N)c(O)c1`, the melting point was 110 to 113 °C.

On to `FC(F)(F)c1cccc2c1SSSSS2`, for which the melting point is 55 to 60 °C.

In turn, `Cc1ccc2cccc(OCc3c(C)ccc(N(C)C(=O)CN4C(=O)c5ccccc5C4=O)c3C)c2n1` returned a melting point of 102 to 110 °C.

`CCCCCC(=O)C=Cc1ccc(CC(=O)O)s1`: the melting point came to 51 °C.

In the case of `CCCCS(=O)(=O)C(c1ccc(Cl)cc1)c1ccc(Cl)cc1`, the melting point was 104 to 106 °C.

For the compound `Cc1nnc2c(C(C)Br)ccnn12` (stereo unspecified), the melting point was in the range of 125 to 128 °C.

`O=C1Cc2cccc(OCc3ccccc3)c2N1` returned a melting point of 140 to 142 °C.

As for `CSc1nn(C(=O)NC2CCCCC2)c(=O)n1C`, the melting point amounted to 136 °C.

`Cc1cc(Oc2cc(F)ccc2[N+](=O)[O-])n[nH]1` registered a melting point of 95 to 97 °C.

On to `CC(=O)N(C)c1cccc(-c2ccc3nnc(N)n3n2)c1`, for which the melting point was in the range of 196 to 197 °C.

In the case of `O=c1cc(O)c2cccnc2n1Cc1ccccc1`, the melting point lay in the range of 250 to 253 °C.

In turn, `CSc1nnc(-c2cc3c([nH]c2=O)CCN(Cc2ccccc2)C3)o1` displayed a melting point of 215 to 217 °C.

`COc1nc2ccccc2cc1C=O` registered a melting point of 92 to 93 °C.

`COc1cc(OC)cc(N2Cc3cnc(SC)nc3N=C2N)c1` showed a melting point of 198 to 204 °C.

The compound `Cc1c(/C=C/C(=O)N(C)C)ncn1C(c1ccccc1)(c1ccccc1)c1ccccc1` came in with a melting point of 195 to 197 °C.

Compound `CN(C)c1cccc2c1C1=NCCN1c1c(-c3noc(C4CC4)n3)ncn1-2` came in with a melting point of 148 to 150 °C.

Take `O=[N+]([O-])c1ccc(-c2ccc(-c3ccc([N+](=O)[O-])cc3C(F)(F)F)o2)c(C(F)(F)F)c1`: the melting point is 158 to 159 °C.

`Cn1cccc1C(=O)C(C#N)C(=O)Nc1ccc([N+](=O)[O-])cc1` (stereo unspecified) gave a melting point of 193 to 195 °C.

Compound `Cc1ccccc1CCc1c(C(C)C)nc(C(C)C)c(CO)c1-c1ccc(F)cc1` returned a melting point of 125 to 126 °C.

`N#CC(C#N)=CN(N=C(C#N)C#N)c1ccc(Cl)cc1` showed a melting point of 161 to 162 °C.

`COc1ccc(-c2nc(C(=O)NC(=N)N)sc2-c2ccc(OC)cc2)cc1`: the melting point fell in the range of 253 to 255 °C.

The compound `CCCCCC(CC(=O)Nc1cc(C(N)=O)ccc1C(C)(C)C)c1cc(Br)c(OC)cc1OC` (stereo unspecified) returned a melting point of 102 to 104 °C.

In the case of `C=CCc1cc(-c2ccc(F)cc2)cc(C(=O)OC)c1O`, the melting point was in the range of 76 to 77 °C.

Take `COc1cc(OC)cc(C(=CC#N)c2ccc(OC)c(N)c2)c1`: the melting point was 93 to 95 °C.

Take `COc1ccc(Nc2nc(N3CCOCC3)nc(-n3c(C(F)F)nc4c(OC)cccc43)n2)cn1`: the melting point lay within 201 to 202 °C.

In turn, `O=C(CO)c1cc(O)c(O)c([N+](=O)[O-])c1` showed a melting point of 208 to 210 °C.

`CCc1noc(-c2cn(-c3cccc(OC4CCCC4)c3)cn2)n1` registered a melting point of 132 °C.

For `CCOC(=O)c1cnc2c(cnn2-c2ccccc2)c1Cl`, the melting point lay in the range of 89 to 91 °C.

Turning to `CN1CCN(c2cc3c(c(N)c2F)c(=O)c(C(=O)O)cn3C2CC2)CC1`, the melting point is 216 to 218 °C.

`CSC(=O)c1c(C(F)F)nc(C(F)(F)F)c(C(=O)SC)c1NC(C)C`: the melting point fell in the range of 92 to 94 °C.

Consider `O=C1NC(=S)CCC1N1C(=O)c2ccccc2C1=O` (stereo unspecified), for which the melting point lay in the range of 225 to 226 °C.

Compound `COc1ccc(C2COc3ccc(-c4nnc(C)o4)cc32)cc1` (stereo unspecified) registered a melting point of 117 to 118 °C.

Take `N#Cc1cc(N2CCCCC2)ccc1[N+](=O)[O-]`: the melting point fell in the range of 126 to 127 °C.

Consider `O=C(C=Cc1ccc(C(F)(F)F)cc1-c1nccs1)Nc1ccc2[nH]ccc2c1`, for which the melting point is 203 to 204 °C.

`Cc1n[nH]c2cc(-c3nn(C(C)c4oc5ccccc5c(=O)c4-c4ccccc4)c4ncnc(N)c34)ccc12` (stereo unspecified) came in with a melting point of 249 to 252 °C.

For the compound `COC(=O)C=Cc1ccc(OCCn2c(=O)sc3cc(C(=O)c4ccccc4)ccc32)cc1`, the melting point lay within 144 to 146 °C.

On to `C=Cc1ccc(OC(=O)c2ccccc2)cc1`, for which the melting point was in the range of 75 to 76 °C.

Compound `CC1(C)OC(=O)Nc2ccc(-c3ccccc3CC#N)cc21` displayed a melting point of 176 to 179 °C.

Regarding `COc1ccc(Br)c2ccc(C(F)(F)F)nc12`, the melting point is 84 to 85 °C.

`CCc1ccc(-c2nc3ccccc3o2)cc1` had a melting point of 84 to 86 °C.

For the compound `O=C(CCCCl)Nc1cccc(Cc2n[nH]c(=O)c3ccccc23)c1`, the melting point lay in the range of 180 to 184 °C.

`CCOC(=O)c1c(N)n(CC)c2nc(Cl)ccc2c1=O`: the melting point was found to be 252 °C.

In turn, `O=C1NC(=O)N(CCCc2ccccc2)C1O` (stereo unspecified) returned a melting point of 131 to 132 °C.

Regarding `Oc1ccc(C2=CCN(CCCN3CCOCC3)CC2)cc1`, the melting point is 166 to 168 °C.

For `CC(C)N1C(=O)CO[C@@H]2c3cc(F)ccc3OCC[C@H]21` (relative stereo), the melting point was 127 to 143 °C.

For `OCC1CCc2ncsc2C1` (stereo unspecified), the melting point lay within 176 to 182 °C.

`COc1c(OCC(F)(F)C(F)(F)F)ccnc1CSc1nc2ccccc2[nH]1` returned a melting point of 116 to 117 °C.

Regarding `CCc1nn(CC2CC2)c2cc(C(=O)Nc3c(Cl)cncc3Cl)ccc12`, the melting point lay in the range of 148 to 150 °C.

Take `CCOC(=O)c1cc(-c2ccccc2)n(-c2cccc(C(N)=O)c2)c1C`: the melting point was 238 to 239 °C.

As to `COc1cc2c(cc1-c1cc(F)ccc1F)NC(=O)CC(c1cccc(-n3ccnn3)c1)=N2`, the melting point is 241 °C.

`CCCC(C)c1nn(-c2ccc(C(F)(F)F)cn2)cc1CCCO` (stereo unspecified) displayed a melting point of 72 to 73 °C.

The compound `CCOC(=O)C(C(C)=O)=C(N)C(F)(F)F` registered a melting point of 63 to 65 °C.

`c1cc(OC2CCNCC2)c2cn[nH]c2c1` displayed a melting point of 162 to 165 °C.

Take `COc1ccc(-c2nc3cc(OC)cc(-c4ccco4)c3o2)cc1`: the melting point lay within 120 to 121 °C.

`Cc1c(C(F)(C(F)(F)F)C(F)(F)F)c(-c2ccc(S(N)(=O)=O)cc2)c2n1CCC2` gave a melting point of 200 °C.
